ChEMBL document CHEMBL4130577, “Platanic acid: A new scaffold for the synthesis of cytotoxic agents” (Eur J Med Chem, 2018)

test system: 518A2; test: Cytotoxicity against human 518A2 cells after 96 hrs by SRB assay; format: functional, cell-based; conditions: 518A2, 96 h

SMILES	EC50
COC(=O)[C@]12CC[C@@H](/C(C)=N/O)[C@@H]1[C@H]1CC[C@@H]3[C@@]4(C)CC[C@H](OC(C)=O)C(C)(C)[C@@H]4CC[C@@]3(C)[C@]1(C)CC2	7.8 µM
CCC(=O)O/N=C(\C)[C@@H]1CC[C@]2(C(=O)OC)CC[C@]3(C)[C@H](CC[C@@H]4[C@@]5(C)CC[C@H](OC(C)=O)C(C)(C)[C@@H]5CC[C@]43C)[C@@H]12	17.9 µM
CC(=O)[C@@H]1CC[C@]2(C(=O)OCc3ccccc3)CC[C@]3(C)[C@H](CC[C@@H]4[C@@]5(C)CC[C@H](N)C(C)(C)[C@@H]5CC[C@]43C)[C@@H]12	1.9 µM
COC(=O)[C@]12CC[C@@H]([C@H](C)N)[C@@H]1[C@H]1CC[C@@H]3[C@@]4(C)CC[C@H](OC(C)=O)C(C)(C)[C@@H]4CC[C@@]3(C)[C@]1(C)CC2	6.3 µM
COC(=O)[C@]12CC[C@@H](/C(C)=N/OC(C)=O)[C@@H]1[C@H]1CC[C@@H]3[C@@]4(C)CC[C@H](OC(C)=O)C(C)(C)[C@@H]4CC[C@@]3(C)[C@]1(C)CC2	16.5 µM

test system: A2780; test: Cytotoxicity against human A2780 cells after 96 hrs by SRB assay; format: functional, cell-based; conditions: A2780, 96 h

SMILES	EC50
CNC(=O)[C@@H]1CC[C@]2(C(=O)OC)CC[C@]3(C)[C@H](CC[C@@H]4[C@@]5(C)CC[C@H](O)C(C)(C)[C@@H]5CC[C@]43C)[C@@H]12	> 30 µM
CC(=O)O[C@H]1CC[C@]2(C)[C@H]3CC[C@@H]4[C@H]5[C@H](C(C)=O)CC[C@]5(C(=O)OCc5ccccc5)CC[C@@]4(C)[C@]3(C)CC[C@H]2C1(C)C	> 30 µM
COC(=O)[C@]12CC[C@@H](/C(C)=N/O)[C@@H]1[C@H]1CC[C@@H]3[C@@]4(C)CC[C@H](OC(C)=O)C(C)(C)[C@@H]4CC[C@@]3(C)[C@]1(C)CC2	12.2 µM
CC(=O)[C@@H]1CC[C@]2(C(=O)OCc3ccccc3)CC[C@]3(C)[C@H](CC[C@@H]4[C@@]5(C)CC[C@H](N)C(C)(C)[C@@H]5CC[C@]43C)[C@@H]12	2.2 µM
COC(=O)[C@]12CC[C@@H]([C@H](C)N)[C@@H]1[C@H]1CC[C@@H]3[C@@]4(C)CC[C@H](OC(C)=O)C(C)(C)[C@@H]4CC[C@@]3(C)[C@]1(C)CC2	6 µM

test system: MCF7; test: Cytotoxicity against human MCF7 cells after 96 hrs by SRB assay; format: functional, cell-based; conditions: MCF7, 96 h

SMILES	EC50
CNC(=O)[C@@H]1CC[C@]2(C(=O)OC)CC[C@]3(C)[C@H](CC[C@@H]4[C@@]5(C)CC[C@H](O)C(C)(C)[C@@H]5CC[C@]43C)[C@@H]12	> 30 µM
CC(=O)O[C@H]1CC[C@]2(C)[C@H]3CC[C@@H]4[C@H]5[C@H](C(C)=O)CC[C@]5(C(=O)OCc5ccccc5)CC[C@@]4(C)[C@]3(C)CC[C@H]2C1(C)C	> 30 µM
COC(=O)[C@]12CC[C@@H](/C(C)=N/O)[C@@H]1[C@H]1CC[C@@H]3[C@@]4(C)CC[C@H](OC(C)=O)C(C)(C)[C@@H]4CC[C@@]3(C)[C@]1(C)CC2	12.4 µM
CCC(=O)O/N=C(\C)[C@@H]1CC[C@]2(C(=O)OC)CC[C@]3(C)[C@H](CC[C@@H]4[C@@]5(C)CC[C@H](OC(C)=O)C(C)(C)[C@@H]5CC[C@]43C)[C@@H]12	13.4 µM
CC(=O)[C@@H]1CC[C@]2(C(=O)OCc3ccccc3)CC[C@]3(C)[C@H](CC[C@@H]4[C@@]5(C)CC[C@H](N)C(C)(C)[C@@H]5CC[C@]43C)[C@@H]12	1.8 µM
COC(=O)[C@]12CC[C@@H]([C@H](C)N)[C@@H]1[C@H]1CC[C@@H]3[C@@]4(C)CC[C@H](OC(C)=O)C(C)(C)[C@@H]4CC[C@@]3(C)[C@]1(C)CC2	4.6 µM
COC(=O)[C@]12CC[C@@H](/C(C)=N/OC(C)=O)[C@@H]1[C@H]1CC[C@@H]3[C@@]4(C)CC[C@H](OC(C)=O)C(C)(C)[C@@H]4CC[C@@]3(C)[C@]1(C)CC2	13.1 µM

test system: A549; test: Cytotoxicity against human A549 cells after 96 hrs by SRB assay; format: functional, cell-based; conditions: A549, 96 h

SMILES	EC50
CNC(=O)[C@@H]1CC[C@]2(C(=O)OC)CC[C@]3(C)[C@H](CC[C@@H]4[C@@]5(C)CC[C@H](O)C(C)(C)[C@@H]5CC[C@]43C)[C@@H]12	> 30 µM
COC(=O)[C@]12CC[C@@H](/C(C)=N/O)[C@@H]1[C@H]1CC[C@@H]3[C@@]4(C)CC[C@H](OC(C)=O)C(C)(C)[C@@H]4CC[C@@]3(C)[C@]1(C)CC2	8.2 µM
CCC(=O)O/N=C(\C)[C@@H]1CC[C@]2(C(=O)OC)CC[C@]3(C)[C@H](CC[C@@H]4[C@@]5(C)CC[C@H](OC(C)=O)C(C)(C)[C@@H]5CC[C@]43C)[C@@H]12	13.2 µM
CC(=O)[C@@H]1CC[C@]2(C(=O)OCc3ccccc3)CC[C@]3(C)[C@H](CC[C@@H]4[C@@]5(C)CC[C@H](N)C(C)(C)[C@@H]5CC[C@]43C)[C@@H]12	2.1 µM
COC(=O)[C@]12CC[C@@H]([C@H](C)N)[C@@H]1[C@H]1CC[C@@H]3[C@@]4(C)CC[C@H](OC(C)=O)C(C)(C)[C@@H]4CC[C@@]3(C)[C@]1(C)CC2	6.6 µM
COC(=O)[C@]12CC[C@@H](/C(C)=N/OC(C)=O)[C@@H]1[C@H]1CC[C@@H]3[C@@]4(C)CC[C@H](OC(C)=O)C(C)(C)[C@@H]4CC[C@@]3(C)[C@]1(C)CC2	13.5 µM

test system: NIH3T3; test: Cytotoxicity against mouse NIH/3T3 cells after 96 hrs by SRB assay; format: cell-based; conditions: NIH3T3, 96 h

SMILES	EC50
CNC(=O)[C@@H]1CC[C@]2(C(=O)OC)CC[C@]3(C)[C@H](CC[C@@H]4[C@@]5(C)CC[C@H](O)C(C)(C)[C@@H]5CC[C@]43C)[C@@H]12	> 30 µM
CC(=O)O[C@H]1CC[C@]2(C)[C@H]3CC[C@@H]4[C@H]5[C@H](C(C)=O)CC[C@]5(C(=O)OCc5ccccc5)CC[C@@]4(C)[C@]3(C)CC[C@H]2C1(C)C	> 30 µM
COC(=O)[C@]12CC[C@@H](/C(C)=N/O)[C@@H]1[C@H]1CC[C@@H]3[C@@]4(C)CC[C@H](OC(C)=O)C(C)(C)[C@@H]4CC[C@@]3(C)[C@]1(C)CC2	14 µM
CCC(=O)O/N=C(\C)[C@@H]1CC[C@]2(C(=O)OC)CC[C@]3(C)[C@H](CC[C@@H]4[C@@]5(C)CC[C@H](OC(C)=O)C(C)(C)[C@@H]5CC[C@]43C)[C@@H]12	15.3 µM
CC(=O)[C@@H]1CC[C@]2(C(=O)OCc3ccccc3)CC[C@]3(C)[C@H](CC[C@@H]4[C@@]5(C)CC[C@H](N)C(C)(C)[C@@H]5CC[C@]43C)[C@@H]12	2.3 µM
COC(=O)[C@]12CC[C@@H]([C@H](C)N)[C@@H]1[C@H]1CC[C@@H]3[C@@]4(C)CC[C@H](OC(C)=O)C(C)(C)[C@@H]4CC[C@@]3(C)[C@]1(C)CC2	4.4 µM
COC(=O)[C@]12CC[C@@H](/C(C)=N/OC(C)=O)[C@@H]1[C@H]1CC[C@@H]3[C@@]4(C)CC[C@H](OC(C)=O)C(C)(C)[C@@H]4CC[C@@]3(C)[C@]1(C)CC2	15 µM

test system: HT-29; test: cells; conditions: Homo sapiens, HT-29, 96 h
Description: Cytotoxicity against human HT-29 cells after 96 hrs by SRB assay

SMILES	EC50
CNC(=O)[C@@H]1CC[C@]2(C(=O)OC)CC[C@]3(C)[C@H](CC[C@@H]4[C@@]5(C)CC[C@H](O)C(C)(C)[C@@H]5CC[C@]43C)[C@@H]12	> 30 µM
CC(=O)O[C@H]1CC[C@]2(C)[C@H]3CC[C@@H]4[C@H]5[C@H](C(C)=O)CC[C@]5(C(=O)OCc5ccccc5)CC[C@@]4(C)[C@]3(C)CC[C@H]2C1(C)C	> 30 µM
COC(=O)[C@]12CC[C@@H](/C(C)=N/O)[C@@H]1[C@H]1CC[C@@H]3[C@@]4(C)CC[C@H](OC(C)=O)C(C)(C)[C@@H]4CC[C@@]3(C)[C@]1(C)CC2	14.4 µM
CCC(=O)O/N=C(\C)[C@@H]1CC[C@]2(C(=O)OC)CC[C@]3(C)[C@H](CC[C@@H]4[C@@]5(C)CC[C@H](OC(C)=O)C(C)(C)[C@@H]5CC[C@]43C)[C@@H]12	28.7 µM
CC(=O)[C@@H]1CC[C@]2(C(=O)OCc3ccccc3)CC[C@]3(C)[C@H](CC[C@@H]4[C@@]5(C)CC[C@H](N)C(C)(C)[C@@H]5CC[C@]43C)[C@@H]12	1.5 µM
COC(=O)[C@]12CC[C@@H]([C@H](C)N)[C@@H]1[C@H]1CC[C@@H]3[C@@]4(C)CC[C@H](OC(C)=O)C(C)(C)[C@@H]4CC[C@@]3(C)[C@]1(C)CC2	2 µM
COC(=O)[C@]12CC[C@@H](/C(C)=N/OC(C)=O)[C@@H]1[C@H]1CC[C@@H]3[C@@]4(C)CC[C@H](OC(C)=O)C(C)(C)[C@@H]4CC[C@@]3(C)[C@]1(C)CC2	23.8 µM
